Data from patent publication US20210238184A1, “THERAPEUTIC COMPOUNDS” (Genentech, Inc., priority 2018, published 2021).
pEC50: −log10 of the molar value.

Legend:
TEAD2 YAP50-100 = TEAD2 YAP50-100 (Homo sapiens, UniProt Q15562); experiment: TEAD2:YAP50-100 protein-protein interaction HTRF (TR-FRET) assay; details: His-tagged TEAD YAP binding domain (aa 217-447), biotinylated YAP peptide aa 50-100; 30 min pre-incubation, 60 min at room temperature; read-out: TEAD2 YAP50-100 HTRF WuXi EC50
Experimental: (§1) Purified His-tagged TEAD protein (YAP Binding Domain, amino acids 217-447) is pre-incubated with Europium labelled anti-His antibody tracer (Perkin Elmer Cat #AD0110). Small molecule Inhibitors are then incubated with the TEAD-Eu protein complex for 30 minutes to allow for binding to TEAD protein. Biotinylated YAP peptide (AA's 50-100) that has been pre-incubated with streptavidin x1665 acceptor (CIS-Bio Cat #610SAXAC) is added to the compound-TEAD mix. The TEAD-YAP-inhibitor mixture is then incubated for 60 minutes at room temperature. All reactions are carried out in a polystyrene plate. After 60 minutes, the plate is read on a plate reader using TR-FRET mode with wavelengths of 665 nm/615 nm. If YAP binds to TEAD as expected, a TR-FRET signal results from the proximity of YAP and TEAD after binding. If an inhibitor such as peptide 17 (Selleckchem Cat #S8164) interferes with YAP-TEAD binding, the disruption of the YAP:TEAD interaction results in a decrease in TR-FRET signal. The potency of compounds as YAP:TEAD protein-protein interaction (PPi) inhibitors is determined by an IC50 or EC50 value generated using a non-linear four parameter curve fit.

TEAD3 YAP50-100 = TEAD3 YAP50-100 (Homo sapiens, UniProt Q99594); experiment: TEAD3:YAP50-100 protein-protein interaction HTRF (TR-FRET) assay; details: His-tagged TEAD YAP binding domain (aa 217-447), biotinylated YAP peptide aa 50-100; 30 min pre-incubation, 60 min at room temperature; read-out: TEAD3 YAP50-100 HTRF WuXi EC50
Sequence of TEAD3 YAP50-100 (Q99594 216-435 limits assumed): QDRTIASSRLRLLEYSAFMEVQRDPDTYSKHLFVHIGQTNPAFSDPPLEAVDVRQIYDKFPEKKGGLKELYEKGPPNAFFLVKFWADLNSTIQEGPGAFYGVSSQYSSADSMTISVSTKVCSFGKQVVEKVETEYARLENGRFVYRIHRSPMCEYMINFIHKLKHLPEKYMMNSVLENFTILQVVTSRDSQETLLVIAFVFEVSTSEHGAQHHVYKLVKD
Experimental: as §1

Sequence of TEAD2 YAP50-100 (Q15562 217-447): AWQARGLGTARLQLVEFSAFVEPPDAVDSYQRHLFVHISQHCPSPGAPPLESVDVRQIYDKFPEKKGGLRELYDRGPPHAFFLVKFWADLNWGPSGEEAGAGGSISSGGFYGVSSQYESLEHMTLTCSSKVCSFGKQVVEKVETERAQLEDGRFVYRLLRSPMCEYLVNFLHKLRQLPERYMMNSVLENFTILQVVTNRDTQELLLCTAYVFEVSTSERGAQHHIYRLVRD

Compound	pEC50 (TEAD2 YAP50-100)	pEC50 (TEAD3 YAP50-100)
CN(C)C(=O)c1cnn2c(=O)cc(-c3ccc(C4CCCC4(C)C)cc3)[nH]c12 (single isomer, unassigned) [Example 22]	6.42	7.38
C[C@@H]1[C@H](CF)CN1C(=O)c1cnn2c(=O)cc(-c3ccc(C4CCCCC4)cc3)[nH]c12 (single isomer, unassigned) [Example 46]	6.12	5.51
CN(C)C(=O)c1cnn2c(=O)cc(-c3ccc(C4CCCC4)cc3)[nH]c12 [Example 3, 5-(4-Cyclopentylphenyl)-N,N-dimethyl-7-oxo-4,7-dihydropyrazolo[1,5-a]pyrimidine-3-carboxamide]	6.47	7.80
CN(CCO)C(=O)c1cnn2c(=O)cc(-c3ccc(C4CCCCC4)cc3)[nH]c12 [Example 5, 5-(4-cyclohexylphenyl)-N-(2-hydroxyethyl)-N-methyl-7-oxo-4,7-dihydropyrazolo[1,5-a]pyrimidine-3-carboxamide]	5.96	6.25
CC1(O)CN(C(=O)c2cnn3c(=O)cc(-c4ccc(C5CCCCC5)cc4)[nH]c23)C1 [Example 9, 5-(4-Cyclohexylphenyl)-3-(3-hydroxy-3-methylazetidine-1-carbonyl)pyrazolo[1,5-a]pyrimidin-7(4H)-one]	6.48	5.89
O=C(c1cnn2c(=O)cc(-c3ccc(C4CCCCC4)cc3)[nH]c12)N1CC(O)C1 [Example 10, 5-(4-Cyclohexylphenyl)-3-(3-hydroxyazetidine-1-carbonyl)pyrazolo[1,5-a]pyrimidin-7(4H)-one]	6.26	7.14
CCOC(=O)c1cnn2c(=O)cc(-c3ccc(OC4CCCCC4)cc3)[nH]c12 [Example 13, Ethyl 5-(4-(Cyclohexyloxy)phenyl)-7-oxo-4,7-dihydropyrazolo[1,5-a]pyrimidine-3-carboxylate]	6.10	7.18
CCOC(=O)c1cnn2c(=O)cc(-c3ccc(Oc4ccccc4)c(C)c3)[nH]c12 [Example 14, Ethyl 5-(3-methyl-4-phenoxyphenyl)-7-oxo-4,7-dihydropyrazolo[1,5-a]pyrimidine-3-carboxylate]	6.13	6.18
CCOC(=O)c1cnn2c(=O)cc(-c3ccc(Oc4ccccc4)cc3)[nH]c12 [Example 15, Ethyl 7-oxo-5-(4-phenoxyphenyl)-4,7-dihydropyrazolo[1,5-a]pyrimidine-3-carboxylate]	6.08	6.27
CN(C)C(=O)c1cnn2c(=O)cc(-c3ccc(Oc4ccccc4)cc3)[nH]c12 [Example 16, /VA-Dimethyl-7-oxo-5-(4-phenoxyphenyl)-4,7-dihydropyrazolo[1,5-a]pyrimidine-3-carboxamide]	6.30	5.95
CCOC(=O)c1cnn2c(=O)cc(-c3ccc(N4CCCCC4)cc3)[nH]c12 [Example 18, Ethyl 7-oxo-5-(4-(piperidin-1-yl)phenyl)-4,7-dihydropyrazolo[1,5-a]pyrimidine-3-carboxylate]	5.13	6.62
CCOC(=O)c1cnn2c(=O)cc(-c3ccc(C(F)(F)F)cc3)[nH]c12 [Example 23, Ethyl 7-oxo-5-(4-(trifluoromethyl)phenyl)-4,7-dihydropyrazolo[1,5-a]pyrimidine-3-carboxylate]	5.75	6.08
CCOC(=O)c1cnn2c(=O)cc(-c3ccc(C(F)(F)F)c(C)c3)[nH]c12 [Example 26, Ethyl 5-(3-methyl-4-(trifluoromethyl)phenyl)-7-oxo-4,7-dihydropyrazolo[1,5-a]pyrimidine-3-carboxylate]	6.02	5.85
CCOC(=O)c1c(C)nn2c(=O)cc(-c3ccc(Oc4ccccc4)cc3)[nH]c12 [Example 28, Ethyl 2-methyl-7-oxo-5-(4-phenoxyphenyl)-4,7-dihydropyrazolo[1,5-a]pyrimidine-3-carboxylate]	5.45	6.41
CCOC(=O)c1cnn2c(=O)cc(-c3ccc(C(C)(C)C)cc3)[nH]c12 [Example 30]	5.79	7.02
CCOC(=O)c1cnn2c(=O)cc(-c3ccc(OC(C)C)cc3)[nH]c12 [Example 31, Ethyl 5-(4-isopropoxyphenyl)-7-oxo-4,7-dihydropyrazolo[1,5-a]pyrimidine-3-carboxylate]	5.39	6.03

The next compounds have a higher pEC50 (TEAD2 YAP50-100) than those just listed; values first:

pEC50 (TEAD2 YAP50-100)	pEC50 (TEAD3 YAP50-100)	Compound
6.57	7.43	CCOC(=O)c1cnn2c(=O)cc(-c3ccc(C4CCCC4(C)C)cc3)[nH]c12 (single isomer, unassigned) [Example 19]
6.73	7.22	CCOC(=O)c1cnn2c(=O)cc(-c3ccc(C4CCCC4(C)C)cc3)[nH]c12 (single isomer, unassigned) [Example 20]
6.66	7.68	CN(C)C(=O)c1cnn2c(=O)cc(-c3ccc(C4CCCC4(C)C)cc3)[nH]c12 (single isomer, unassigned) [Example 21]
8.10	7.37	C[C@H]1[C@@H](CF)CN1C(=O)c1cnn2c(=O)cc(-c3ccc(C4CCCCC4)cc3)[nH]c12 (single isomer, unassigned) [Example 45]
6.58	7.39	CCOC(=O)c1cnn2c(=O)cc(-c3ccc(C4CCC(F)(F)CC4)cc3)[nH]c12 [Example 1, Ethyl 5-(4-(4,4-difluorocyclohexyl)phenyl)-7-oxo-4,7-dihydropyrazolo[1,5-a]pyrimidine-3-carboxylate]
6.92	7.72	CCOC(=O)c1cnn2c(=O)cc(-c3ccc(C4CCCC4)cc3)[nH]c12 [Example 2, Ethyl 5-(4-cyclopentylphenyl)-7-oxo-4,7-dihydropyrazolo[1,5-a]pyrimidine-3-carboxylate]
7.18	7.72	CCOC(=O)c1cnn2c(=O)cc(-c3ccc(C4CCCCC4)cc3)[nH]c12 [Example 4, Ethyl 5-(4-cyclohexylphenyl)-7-oxo-4,7-dihydropyrazolo[1,5-a]pyrimidine-3-carboxylate]
7.17	7.74	CCN(C)C(=O)c1cnn2c(=O)cc(-c3ccc(C4CCCCC4)cc3)[nH]c12 [Example 6, 5-(4-Cyclohexylphenyl)-N-ethyl-N-methyl-7-oxo-4,7-dihydropyrazolo[1,5-a]pyrimidine-3-carboxamide]
7.06	7.74	CN(C)C(=O)c1cnn2c(=O)cc(-c3ccc(C4CCCCC4)cc3)[nH]c12 [Example 7, 5-(4-Cyclohexylphenyl)-N,N-dimethyl-7-oxo-4,7-dihydropyrazolo[1,5-a]pyrimidine-3-carboxamide]
7.42	7.64	O=C(c1cnn2c(=O)cc(-c3ccc(C4CCCCC4)cc3)[nH]c12)N1CCC1 [Example 8, 3-(Azetidine-1-carbonyl)-5-(4-cyclohexylphenyl)pyrazolo[1,5-a]pyrimidin-7(4H)-one]
7.96	7.49	CC1CN(C(=O)c2cnn3c(=O)cc(-c4ccc(C5CCCCC5)cc4)[nH]c23)C1 [Example 11, 5-(4-Cyclohexylphenyl)-3-(3-methylazetidine-1-carbonyl)pyrazolo[1,5-a]pyrimidin-7(4H)-one]
7.17	7.25	O=C(c1cnn2c(=O)cc(-c3ccc(C4CCCCC4)cc3)[nH]c12)N1CC(F)(F)C1 [Example 12, 5-(4-Cyclohexylphenyl)-3-(3,3-difluoroazetidine-1-carbonyl)pyrazolo[1,5-a]pyrimidin-7(4H)-one]
7.26	5.30	CCNC(=O)c1cnn2c(=O)cc(-c3ccc(Oc4ccccc4)cc3)[nH]c12 [Example 17, N-Ethyl-7-oxo-5-(4-phenoxyphenyl)-4,7-dihydropyrazolo[1,5-a]pyrimidine-3-carboxamide]
7.10	5.36	CCNC(=O)c1cnn2c(=O)cc(-c3ccc(C(F)(F)F)cc3)[nH]c12 [Example 24, N-Ethyl-7-oxo-5-(4-(trifluoromethyl)phenyl)-4,7-dihydropyrazolo[1,5-a]pyrimidine-3-carboxamide]
6.67	4.98	CNC(=O)c1cnn2c(=O)cc(-c3ccc(C(F)(F)F)cc3)[nH]c12 [Example 25, N-methyl-7-oxo-5-(4-(trifluoromethyl)phenyl)-4,7-dihydropyrazolo[1,5-a]pyrimidine-3-carboxamide]
6.68	5.45	O=C(NC1CC1)c1cnn2c(=O)cc(-c3ccc(C(F)(F)F)cc3)[nH]c12 [Example 27, N-Cyclopropyl-7-oxo-5-(4-(trifluoromethyl)phenyl)-4,7-dihydropyrazolo[1,5-a]pyrimidine-3-carboxamide]
6.60	6.91	CCOC(=O)c1c(C(C)C)nn2c(=O)cc(-c3ccc(Oc4ccccc4)cc3)[nH]c12 [Example 29, Ethyl 2-isopropyl-7-oxo-5-(4-phenoxyphenyl)-4,7-dihydropyrazolo[1,5-a]pyrimidine-3-carboxylate]
